{"source": "patent US6924092B1", "about": "“Screening method involving MGDG synthase” (Commissariat a L'Energie Atomique, priority 1999, dated 2005)", "key": {"[1]": {"target": "T1, rMGD A (overexpressed spinach MGDG synthase) (Spinacia oleracea, UniProt Q9SM44)", "T1 construct": "Two mature forms of MGDG synthase are overexpressed in E. coli; additional initiation methionine (N); made in house; host or cells: E. coli BL21(DE3), plasmid pET-Y 3a; solubilised with CHAPS and partially purified on hydroxyapatite", "T1 sequence (Q9SM44 99-522)": "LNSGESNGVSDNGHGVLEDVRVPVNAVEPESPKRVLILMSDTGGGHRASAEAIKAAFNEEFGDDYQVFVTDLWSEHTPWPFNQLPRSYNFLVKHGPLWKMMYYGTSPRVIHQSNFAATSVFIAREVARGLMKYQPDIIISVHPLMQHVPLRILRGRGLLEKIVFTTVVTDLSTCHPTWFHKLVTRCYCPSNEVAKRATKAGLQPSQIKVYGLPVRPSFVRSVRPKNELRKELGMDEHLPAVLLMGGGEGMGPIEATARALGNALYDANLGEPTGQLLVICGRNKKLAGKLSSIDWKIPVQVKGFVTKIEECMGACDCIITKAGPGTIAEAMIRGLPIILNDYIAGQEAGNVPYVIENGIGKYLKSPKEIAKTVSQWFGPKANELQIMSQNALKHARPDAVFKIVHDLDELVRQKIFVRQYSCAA", "assay": "Galactosylation activity of partially purified recombinant MGDG synthase (rMGD A), measured with micelles and UDP-[14C]gal", "type": "biochemical", "conditions": "for Inhibition of rMGD A activity (in words): overexpressed rMGD A; for activity at 150 µM: 150 μM NEM 10 min, % of control", "method": "The activity of the MGDG synthase is measured on various types of sample, depending on the model chosen: plastidial membrane, membrane fractions of E. coli overexpressing a recombinant MGDG synthase (rMGD A, 0.7 μg protein/assay, enzyme extracted beforehand from a plant (see Example 1)).\n1.3 mM of phosphatidylglycerol (PG) and 160 μM of diacylglycerol (DAG) are dissolved in chloroform. After evaporating the solvent under argon, 200 μl of incubation medium containing 50 mM of MOPS-NaOH, pH 7.8, 4.5 mM OF CHAPS, 1 mM of DTT, 250 mM of KH2PO4/K2HPO4 and 250 mM of KCl are added and the medium is mixed vigorously so as to resuspend the lipids. 100 μl of fractions containing the MGDG synthase, in the incubation medium, are introduced then the medium is again mixed vigorously and then maintained at 20° C. for 1 h.\nThe reaction in the incubation mixture is then initiated by adding 1 mM of UDP-[^14C]gal (37 Bq/μmol). After 10 min to 1 h, the reaction is stopped by adding a chloroform/methanol mixture (1:2, v/v), the lipids are extracted in accordance with the method of Bligh et al (Can. J. Biochem. Physiol, 1959, 37, 911-917) and the radioactivity of the labeled galactolipids is determined by liquid scintillation counting as described in Covès et al. (FEBS lett., 1986, 208, 401-406). The activity is expressed in μmol of galactose incorporated/h/mg of protein.\nThe fractions of partially purified rMGD A are desalified by chromatography on a Biogel P6-DG (Bio-Rad) column (Pharmacia, C10/40 column, 30 ml of gel) equilibrated in DTT. Aliquots (200 μl) of the fractions are incubated for 40 minutes at 25° C. with gentle stirring, in the presence or absence of DTT. The galactosylation activity is then measured as specified above (see Example 3).\nIn order to obtain the results summarized in Table II, the rMGD A is desalified by chromatography on a Biogel P6-DG (Bio-Rad) column (Pharmacia, C10/40, column, 30 ml of gel) equilibrated in DTT. Aliquots (200 μl) of the fractions are incubated for 30 minutes at 25° C. with gentle stirring, followed by a 10 min incubation in the presence or absence of 150 μM NEM and then a 10 min incubation in the presence or absence of DTT. The galactosilyation activity is then measured as specified above (see Example 3)."}, "[2]": {"target": "T2, MGDG synthase partially purified from spinach leaf chloroplasts (Spinacia oleracea, UniProt Q9SM44)", "T2 construct": "the MGDG synthase partially purified from spinach leaf chloroplasts; host or cells: spinach leaf chloroplasts (envelope membranes)", "T2 sequence (Q9SM44 99-522)": "T1 sequence (Q9SM44 99-522)", "conditions": "chloroplast envelope enzyme, Maréchal et al., J. Biol. Chem., 1995; cited from earlier work"}}, "data": [{"smiles": "c1cnc2c(c1)ccc1cccnc12", "note": "[orthophenanthroline]", "values": [{"measurement": "Inhibition of rMGD A activity (in words)", "setting": "[1]", "value": "inhibited"}, {"measurement": "Activity (%)", "setting": "[1]; with orthophenanthroline, no other additions, initial activity (time 0) = 100", "value": 43, "unit": "%"}, {"measurement": "Activity (%)", "setting": "[1]; with orthophenanthroline, other addition PG, initial activity (time 0) = 100", "value": 27, "unit": "%"}, {"measurement": "Activity (%)", "setting": "[1]; with orthophenanthroline, other addition UDP-gal, initial activity (time 0) = 100", "value": 17, "unit": "%"}, {"measurement": "Activity (%)", "setting": "[1]; with orthophenanthroline, other additions PG + DAG, initial activity (time 0) = 100", "value": 92, "unit": "%"}, {"measurement": "Inhibition of the enzyme (in words)", "setting": "[2]", "value": "powerful inhibitors"}]}, {"smiles": "O[C@H](CS)[C@H](O)CS", "note": "(racemic) [DTT, dithiothreitol]", "values": [{"measurement": "Effect of DTT on rMGD A activity after desalification (in words)", "setting": "[1]; DTT removed on Biogel P6-DG column, DTT added back", "value": "maintains its activity"}, {"measurement": "Activity (%)", "setting": "[1]; desalified hydroxyapatite fraction + 1 mM DTT, 40 min at 25° C., percentage of the control (not desalified) activity", "value": 75, "unit": "%"}, {"measurement": "Activity (%)", "setting": "[1]; desalified hydroxyapatite fraction + 10 mM DTT, 40 min at 25° C., percentage of the control (not desalified) activity", "value": 65, "unit": "%"}, {"measurement": "activity at 10000 µM", "setting": "[1]; desalified rMGD A, pre-incubation 30 min without addition, no NEM, then 10 mM DTT 10 min, % of control (50 min in 10 mM DTT)", "value": 101, "unit": "%"}, {"measurement": "Protection of enzyme activity against oxidation (in words)", "setting": "[2]", "value": "can protect the activity of the enzyme against oxidation"}]}, {"smiles": "CCN1C(=O)C=CC1=O", "note": "[NEM, N-ethylmaleimide]", "values": [{"measurement": "Inhibition of rMGD A activity (in words)", "setting": "[1]", "value": "very sensitive"}, {"measurement": "activity at 150 µM", "setting": "[1]; pre-incubation 30 min with DTT, no further DTT incubation, reaction + PG + DAG + UDP-gal", "value": 108, "unit": "%"}, {"measurement": "activity at 150 µM", "setting": "[1]; pre-incubation 30 min with PG + DAG, then 10 mM DTT 10 min, reaction + UDP-gal", "value": 60, "unit": "%"}, {"measurement": "activity at 150 µM", "setting": "[1]; pre-incubation 30 min with PG, then 10 mM DTT 10 min, reaction + DAG + UDP-gal", "value": 56, "unit": "%"}, {"measurement": "activity at 150 µM", "setting": "[1]; pre-incubation 30 min with UDP-gal, then 10 mM DTT 10 min, reaction + PG + DAG", "value": 32, "unit": "%"}, {"measurement": "activity at 150 µM", "setting": "[1]; pre-incubation 30 min without addition, then 10 mM DTT 10 min, reaction + PG + DAG + UDP-gal", "value": 35, "unit": "%"}, {"measurement": "Inhibition of the enzyme (in words)", "setting": "[2]", "value": "powerful inhibitors"}]}]}
